Where two headings read alike, the source gives them in different places. Where a SMILES comes first, the peptide text is derived from it. [ ]: non-standard residue; d: D form. The star is where a group is joined. pNA = O=[N+]([O-])c1ccc(N*)cc1; pGlu = O=C1CC[C@@H](C(=O)O)N1
How the values were obtained:
Urokinase [1] = target: T1, Urokinase (Homo sapiens, UniProt P00749); assay: Km determination of amidolytic chromogenic substrates with urokinase; assay type: biochemical; details: 3 units per hole, 100 mM Tris pH 8.0/100 mM NaCl/0.01% Tween 80, 37° C., Lineweaver-Burk plot
Experimental: (§1) In a 96-hole plate, respectively 90 μl of 100 mM Tris pH 8.0/100 mM NaCl/0.01% "Tween" 80 and 50 μl of the corresponding chromogenic substrate (all from Kabi Vitrum, Stockholm, Sweden) in the final concentrations of 0.03/0.06/0.1/0.3/0.6 and 1 mM are incubated with 10 μl (3 units per hole) of the corresponding plasminogen activator at 37° C., and the thus-released p-nitroaniline is determined photometrically at 405 nm at various points in time between 0-7 hours. The resultant data are evaluated with the aid of a Lineweaver-Burk plot, and the Km value is determined (Segel, I. H., Enzyme Kinetics, John Wiley and Sons, New York). The following chromogenic substrates were utilized:

Urokinase [2] = target: T1, Urokinase; details: literature value (Friedberger 1982), read-out: Km (value in parentheses, from the literature); cited from earlier work
[3] = target: T2, t-PA (tissue-type plasminogen activator) (Homo sapiens, UniProt P00750); assay: Km determination of amidolytic chromogenic substrates with t-PA; assay type: biochemical; details: 3 units per hole, 100 mM Tris pH 8.0/100 mM NaCl/0.01% Tween 80, 37° C., Lineweaver-Burk plot
Experimental: as §1

[4] = target: T2, t-PA (tissue-type plasminogen activator); details: literature value (Friedberger 1982), read-out: Km (value in parentheses, from the literature); cited from earlier work

T2 sequence (P00750 36-562): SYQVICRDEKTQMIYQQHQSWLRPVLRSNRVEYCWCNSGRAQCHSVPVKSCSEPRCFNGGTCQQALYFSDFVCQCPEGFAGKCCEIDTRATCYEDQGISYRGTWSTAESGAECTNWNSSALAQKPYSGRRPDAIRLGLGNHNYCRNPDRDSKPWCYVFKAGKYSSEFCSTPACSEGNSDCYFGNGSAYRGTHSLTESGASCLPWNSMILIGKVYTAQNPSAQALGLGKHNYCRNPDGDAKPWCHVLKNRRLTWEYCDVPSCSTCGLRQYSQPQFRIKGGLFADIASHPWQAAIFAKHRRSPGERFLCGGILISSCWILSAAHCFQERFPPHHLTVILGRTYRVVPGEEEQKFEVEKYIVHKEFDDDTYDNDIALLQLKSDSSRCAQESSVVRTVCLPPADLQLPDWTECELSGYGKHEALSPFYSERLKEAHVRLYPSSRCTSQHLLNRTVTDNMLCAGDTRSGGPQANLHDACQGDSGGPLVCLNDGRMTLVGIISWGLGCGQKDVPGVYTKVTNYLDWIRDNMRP

Km [3]	Km (Urokinase [1]; read-out: Km)	SMILES	Km (Urokinase [1])	Km (Urokinase [2])	Km [4]
–	–	N=C(N)NCCC[C@H](NC(=O)CNC(=O)[C@@H]1CCC(=O)N1)C(=O)Nc1ccc([N+](=O)[O-])cc1 [S-2444, <Glu-Gly-Arg-pNA] ([pGlu]-Gly-Arg-pNA)	100 µM	90 µM	–
700 µM	400 µM	CC[C@@H](C)[C@@H](N)C(=O)N1CCC[C@H]1C(=O)N[C@@H](CCCNC(=N)N)C(=O)Nc1ccc([N+](=O)[O-])cc1 [S-2288, H-D-Ile-Pro-Arg-pNA] (H-[dI]-Pro-Arg-pNA)	–	–	1000 µM
